Laboratory results from article PMC10960024, “Diindoles produced from commensal microbiota metabolites function as endogenous CAR/Nr1i3 ligands” (Nature Communications, 2024).

Columns and labels:
[1] = target: T1, hCAR (Homo sapiens, UniProt Q14994); assay: Bottom-up HDX-MS of hCAR with ligand; format: binding; conditions: 100 µM ligand
T1 construct: The human CAR LBD (Lys^108 – Ser^352) was amplified by PCR from cDNA; HIS6; made in house; host or cells: E. coli BL21(DE3)
T1 sequence (Q14994 108-352): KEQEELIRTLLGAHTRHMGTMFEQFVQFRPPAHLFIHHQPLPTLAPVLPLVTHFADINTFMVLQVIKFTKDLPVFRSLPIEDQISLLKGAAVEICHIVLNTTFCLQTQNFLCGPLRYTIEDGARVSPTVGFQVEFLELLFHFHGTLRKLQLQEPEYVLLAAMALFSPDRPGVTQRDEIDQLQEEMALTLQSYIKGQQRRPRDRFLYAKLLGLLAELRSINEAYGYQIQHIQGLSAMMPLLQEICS
Method: Human CAR protein was prepared at 10 µM in 100 mM ammonium acetate pH 7.25 and diluted into either equilibration buffer (10 mM phosphate buffer, pH 7.5) or deuterated reaction buffer (10 mM phosphate buffer, 150 mM NaCl, pH 7.5 in D2O). After labeling times of 1, 10 or 30 min at 25 °C, samples were mixed with equal volumes of quench buffer (100 mM phosphate buffer, pH 2.5) at 0 °C. […] HDX-MS was performed using a commercial Waters HDX system (M-class ACQUITY UPLC and Water Cyclic IMS Mass Spectrometer). Leucine enkephalin was used for mass correction, and all time points were carried out in triplicate. Samples were digested using an Enzymate BEH Pepsin column (2.1 × 30 mm, Waters) at 15 °C. Peptides were desalted on an ACQUITY UPLC BEH C18 VanGuard Pre-column (2.1 × 5 mm, Waters) and separated using an ACQUITY UPLC BEH C18 column (100 × 1 mm, Waters). ProteinLynx Global server (PLGS) and DynamX software was used for peptide identification and deuterium uptake analysis, respectively. PyMOL 2.5 was used for structural visualization.

[2] = target: T2, GST-hCAR-LBD (Homo sapiens, UniProt Q14994); assay: LanthaScreen TR-FRET PGC1α coactivator recruitment assay; format: biochemical
T2 construct: GST-hCAR-LBD (5 nM), terbium-labeled anti-GST antibody (5 nM); purchased Invitrogen A15141
T2 sequence (Q14994 109-352 limits assumed): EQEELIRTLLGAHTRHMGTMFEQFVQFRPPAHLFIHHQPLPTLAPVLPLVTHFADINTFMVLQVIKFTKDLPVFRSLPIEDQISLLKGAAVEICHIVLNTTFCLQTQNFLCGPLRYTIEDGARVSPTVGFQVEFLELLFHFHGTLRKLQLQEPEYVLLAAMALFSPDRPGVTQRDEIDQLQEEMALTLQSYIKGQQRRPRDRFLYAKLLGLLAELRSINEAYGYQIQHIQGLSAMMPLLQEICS
Method: LanthaScreen^TM TR-FRET hCAR coactivator assays were performed according to manufacturer’s instructions (Invitrogen, A15141). Test compounds were incubated for 2 h at room temperature with GST-hCAR-LBD (5 nM), terbium-labeled anti-GST antibody (5 nM), and Fluorescein-PGC1α coactivator peptide (125 nM). Incubations were performed in four technical replicates. TR-FRET emissions were measured using a Tecan Infinite F200 Fluorescence Microplate Reader. Results were expressed as the ratio of fluorescence intensity at 520 nm (fluorescein emission excited by terbium emissions) and 495 nm (terbium emissions).

## CC(c1c[nH]c2ccccc12)c1c[nH]c2ccccc12 [DIE, 3,3’-diindolylethane]
[1]
  deuterium uptake change, residues 235–243 (H12/AF2): increased uptake
  deuterium uptake difference, amino acids 217–234 (H11): < 10%
  difference in deuterium uptake compared to apo hCAR, amino acids 51–65 (H3): > 20%
[2]
  PGC1α cofactor recruitment: does not
